Consider 8 compounds from publication PMC12797155 (ACS Pharmacology & Translational Science, 2025).

Where “and” joins values, the source holds several entries; their conditions need not be identical. Equal entries are not always repeated.

Experiment [1] concerns PAR4. In words: Human platelet flow cytometry assay, PAR4 activation (α-thrombin + vorapaxar). In kind it is cell-based. The settings on record: alpha-thrombin flow cytometry assay, human platelets; PAR4 vs PAR1. The source says:
(§1) Same as described previously.
(§2) In the flow cytometry experiments, thrombin activates PAR4 on human platelets. […] In the flow cytometry assay, human platelets are stimulated with thrombin in the presence of either a PAR4 antagonist (BMS-3) or a PAR1 antagonist (Vorapaxar). This determines the IC50 of the test compound against PAR1 and PAR4 activation.

Experiment [2] addresses T1, PAR4 (Homo sapiens, UniProt Q96RI0).
T1 sequence (Q96RI0 48-385): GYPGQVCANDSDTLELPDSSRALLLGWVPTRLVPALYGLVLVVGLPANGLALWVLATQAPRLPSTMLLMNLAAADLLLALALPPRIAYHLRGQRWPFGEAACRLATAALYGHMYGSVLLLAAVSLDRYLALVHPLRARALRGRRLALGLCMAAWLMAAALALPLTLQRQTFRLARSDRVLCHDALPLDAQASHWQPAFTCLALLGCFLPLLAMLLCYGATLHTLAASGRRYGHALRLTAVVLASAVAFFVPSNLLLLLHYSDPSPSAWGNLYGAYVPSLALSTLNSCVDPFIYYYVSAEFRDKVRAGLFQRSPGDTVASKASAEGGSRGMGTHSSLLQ
Described as above. In kind it is cell-based. The settings on record: human platelets, α-thrombin + vorapaxar; N = 3.
Excerpt: as §1, §2

The next experiment concerns the target T2, thrombin (Homo sapiens, UniProt P00734).
T2 construct: Alpha-thrombin was ordered from Enzyme Research Laboratories; purchased Enzyme Research Laboratories (South Bend, IN)
The experiment can be described thus: Michaelis-Menten enzyme kinetic analysis of thrombin in the presence of PAR4 antagonists. Conditions: thrombin in the presence of PAR4 antagonist. Also noted: unit not given here. In kind it is biochemical. As for the experimental part: (§3) Chromogenic substrate, S-2238, was ordered from DiaPharma (West Chester, OH). Alpha-thrombin was ordered from Enzyme Research Laboratories (South Bend, IN). White, round, clear-bottom 96-well plates were used to run the screen. The plate was read using a BioTek Neo plate reader every minute for 60 min at a wavelength of 405 nm. The substrate control wells were subtracted from the raw counts, and the data was normalized to the thrombin enzyme control wells as a percentage. The percentages were graphed in GraphPad Prism.
To also characterize what type of inhibition was occurring with these compounds, we performed Michaelis–Menten enzyme kinetic analysis. […] This is not a surprising finding, as thrombin is believed to interact with PAR4 only at the active cleft of thrombin. PAR4 lacks the hirudin-like binding domain that PAR1 has, which enables PAR1 to have a higher affinity to thrombin.
2 Thrombin inhibition characterization of PAR4 antagonists. A) Michaelis–Menten plot depicting thrombin enzymatic activity in the presence of various PAR4 antagonists. B) Lineweaver–Burk plot of the Michaelis–Menten plot.

The next experiment deals with T3, alpha thrombin (Homo sapiens, UniProt P00734).
T3 construct: Alpha-thrombin was ordered from Enzyme Research Laboratories; purchased Enzyme Research Laboratories (South Bend, IN)
The experiment can be described thus: Chromogenic thrombin activity assay with substrate S-2238. In kind it is biochemical. The settings on record: for inhibition at 0.5 µM: read-out: inhibition of thrombin; for IC50: thrombin activity assay, N = 3, read-out: IC50 against thrombin (S-2238 Thrombin Kinetic Assay). The procedure: as §3, with “Prism. To investigate thrombin inhibition, we utilized a chromogenic assay with a thrombin substrate, S-2238. Thrombin activity was measured by the production of a visible color change to substrate S-2238. Each assay run included a substrate control, where just substrate was added to the well without thrombin enzyme, an enzyme control (EC), which consisted of thrombin without any inhibitor present, and an inhibitor control (IC), which contained a known thrombin inhibitor, Argatroban.” for “Prism.”

Consider `CC1CNc2c(cccc2S(=O)(=O)N[C@@H](CCCNC(=N)N)C(=O)N2CC[C@@H](C)C[C@@H]2C(=O)O)C1` (stereo partly drawn) [Argatroban, reference compound], for which the “preference for PAR4 over PAR1” value in the experiment with PAR4 [1] is reported as “no preference for PAR4 over PAR1”. Also, the IC50 at PAR4 [2] is 0.0652 µM. Turning to `COc1ccc2cc(-c3cn4nc(SC)sc4n3)oc2c1` [Compound 6PMJ], the Vmax at thrombin worked out at 0.08856. For the compound `Cc1nc(NC(=O)c2cc(C(=O)OC(C)(C)C)n(-c3ccccc3)n2)n[nH]1` [Compound 7], the Vmax on thrombin came to 0.08588. Further, the half-inhibitory concentration (IC50) on PAR4 [2] was determined as 6.6 µM.

For `Cc1cc(C(=O)Nc2nc(-c3cccc(OC(F)F)c3)n[nH]2)nn1-c1ccccc1` [Compound 9], at thrombin, the Vmax is 0.0849.

As for `Cn1nc(C(=O)Nc2n[nH]c(-c3c(F)cccc3F)n2)cc1C1CC1` [Compound 12], on PAR4 [2], the IC50 is about 0.149 µM. On alpha thrombin, the inhibition at 0.5 µM was about 70%; the IC50 was ~0.071 µM and 0.0706 µM. `O=C(Nc1n[nH]c(-c2ccc(F)cc2F)n1)c1nn(-c2ccccc2)c2c1CCCC2` [Compound 31]: the Vmax on thrombin worked out at 0.1010. Besides, the IC50 at PAR4 [2] is about 0.16 µM; at alpha thrombin it was ~1 µM and 1.09 µM. For the same compound, the inhibition at 0.5 µM on alpha thrombin was about 70%.

With `COc1cccc(-c2nc(NC(=O)c3nn(-c4ccccc4)c4c3CCCC4)n[nH]2)c1` [Compound 32], the Vmax on thrombin was determined as 0.09616. For the compound Hirugen [reference compound], the “preference for PAR4 over PAR1” value in the experiment with PAR4 [1] is listed as “no preference for PAR4 over PAR1”.

As a reminder, the IC50 is the point on the concentration scale where inhibition reaches its midpoint. For orientation: inhibition means the drop in the measured response relative to a control, in per cent.
